Values of other authors in US10016375B2, “Materials and methods for controlling infections” (priority 2013, dated 2018).
Each block holds one compound with its values, some of them ahead of it.

How the values were obtained:
[1] = 4% chlorhexidine gluconate applied to the eyes
[2] = three consecutive cataract operations

SMILES: CC(=O)O.CC(=O)O.NC(=N\CCCCCC/N=C(N)/N=C(\N)Nc1ccc(Cl)cc1)/N=C(\N)Nc1ccc(Cl)cc1 [Chlorhexidine diacetate]
Acute toxicity when applied to the eye: highly acutely toxic

SMILES: [H]/N=C(\N/C(=N/[H])NCCCCCCNC(=N)NC(=N)Nc1ccc(Cl)cc1)Nc1ccc(Cl)cc1 [Chlorhexidine gluconate]
Corneal damage (bullous keratopathy, epithelial defects, corneal opacification) when applied to the eyes [1]: may produce corneal damage

Effects in the retina or optic nerve after intraocular irrigation [2]: No effects were observed
SMILES: [H]/N=C(\N/C(=N/[H])NCCCCCCNC(=N)NC(=N)Nc1ccc(Cl)cc1)Nc1ccc(Cl)cc1 [chlorhexidine]
Corneal endothelium damage after intraocular irrigation ([2]; two of the three patients): corneal endothelium damage was so severe that penetrating keratoplasty had to be performed
